These results are taken from ChEMBL document CHEMBL4265944, “Novel amide derivatives of 1,3-dimethyl-2,6-dioxopurin-7-yl-alkylcarboxylic acids as multifunctional TRPA1 antagonists and PDE4/7 inhibitors: A new approach for the treatment of pain” (Eur J Med Chem, 2018).

Assay [1] has as its target Transient receptor potential cation channel subfamily A member 1 (Homo sapiens) (UniProt O75762). As to the kind of experiment: Antagonist activity at human TRPA1 expressed in HEK293 cells assessed as decrease in flufenamic acid-evoked increase in intracellular calcium level at 100 uM measured for 180 secs with 1 sec interval by Fluo4-AM dye-based fluorescence assay relative to control. The assay is classed as cell-based. For orientation: A change in cytosolic calcium serves as a functional read-out for many receptors and channels.

The target in assay [2] is 3',5'-cyclic-AMP phosphodiesterase 4B (Homo sapiens, UniProt Q07343). As to the kind of experiment: Inhibition of recombinant human PDE4B using cAMP as substrate after 10 mins by PDE-Glo Phosphodiesterase Assay.
3',5'-cyclic-AMP phosphodiesterase 4B, sequence (Q07343 whole entry): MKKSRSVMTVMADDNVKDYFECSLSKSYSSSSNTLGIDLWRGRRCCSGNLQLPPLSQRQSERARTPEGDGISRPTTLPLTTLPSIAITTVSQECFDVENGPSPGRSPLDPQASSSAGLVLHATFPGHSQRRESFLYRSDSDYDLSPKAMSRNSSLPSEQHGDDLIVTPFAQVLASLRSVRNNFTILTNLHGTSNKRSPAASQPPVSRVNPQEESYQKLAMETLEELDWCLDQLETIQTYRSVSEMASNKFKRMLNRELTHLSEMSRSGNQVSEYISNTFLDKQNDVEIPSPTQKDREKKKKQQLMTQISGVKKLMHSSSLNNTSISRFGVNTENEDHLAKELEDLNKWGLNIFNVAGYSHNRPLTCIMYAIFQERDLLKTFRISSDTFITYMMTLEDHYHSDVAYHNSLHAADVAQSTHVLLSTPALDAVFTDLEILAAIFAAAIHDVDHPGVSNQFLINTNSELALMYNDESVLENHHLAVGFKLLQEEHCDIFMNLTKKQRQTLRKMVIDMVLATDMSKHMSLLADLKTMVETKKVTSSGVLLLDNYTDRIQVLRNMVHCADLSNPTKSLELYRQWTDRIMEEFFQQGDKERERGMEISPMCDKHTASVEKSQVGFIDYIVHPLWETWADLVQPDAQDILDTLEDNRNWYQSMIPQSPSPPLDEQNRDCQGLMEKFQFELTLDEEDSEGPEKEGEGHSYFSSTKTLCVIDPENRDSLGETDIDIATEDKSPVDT
In assay [3] the target is High affinity 3',5'-cyclic-AMP phosphodiesterase 7A (Homo sapiens, UniProt Q13946). As to the kind of experiment: Inhibition of recombinant human PDE7A using cAMP as substrate after 10 mins by PDE-Glo Phosphodiesterase Assay.
High affinity 3',5'-cyclic-AMP phosphodiesterase 7A, sequence (Q13946 whole entry): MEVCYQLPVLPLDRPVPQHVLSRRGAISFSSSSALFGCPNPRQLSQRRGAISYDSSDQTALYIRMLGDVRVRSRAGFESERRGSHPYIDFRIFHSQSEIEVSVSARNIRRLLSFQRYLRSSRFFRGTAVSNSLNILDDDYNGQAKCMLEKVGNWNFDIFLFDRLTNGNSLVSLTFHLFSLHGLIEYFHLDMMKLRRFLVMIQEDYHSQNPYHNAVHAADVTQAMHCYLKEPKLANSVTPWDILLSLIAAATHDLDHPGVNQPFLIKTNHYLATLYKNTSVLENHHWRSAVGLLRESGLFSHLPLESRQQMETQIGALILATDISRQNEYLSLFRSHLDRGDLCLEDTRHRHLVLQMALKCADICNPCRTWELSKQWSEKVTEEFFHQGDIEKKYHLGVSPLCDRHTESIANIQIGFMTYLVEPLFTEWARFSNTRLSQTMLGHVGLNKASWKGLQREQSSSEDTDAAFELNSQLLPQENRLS
Assay [4] relates to Mus musculus. As to the kind of experiment: Antiinflammatory activity in formalin-induced nociception Swiss CD-1 mouse model assessed as time spent on licking or biting formalin injected right hind paw during neurogenic phase at 5 mg/kg, ip measured during phase 1 (reference value: 97 +/- 6.86 sec). The format is functional.
For assay [5], the system named is Mus musculus. As to the kind of experiment: Antiinflammatory activity in formalin-induced nociception Swiss CD-1 mouse model assessed as time spent on licking or biting formalin injected right hind paw during neurogenic phase at 2.5 mg/kg, ip measured during phase 2 (reference value: 158.3 +/- 12.34 sec). The format is functional.
Assay [6] concerns Mus musculus. As to the kind of experiment: Antiinflammatory activity in formalin-induced nociception Swiss CD-1 mouse model assessed as time spent on licking or biting formalin injected right hind paw during neurogenic phase at 10 mg/kg, ip measured during phase 2 (reference value: 158.3 +/- 12.34 sec). The assay is classed as functional.
Assay [7] relates to Rattus norvegicus. As to the kind of experiment: Anti-inflammatory activity in Wistar rat assessed as inhibition of carrageenan-induced paw edema at 20 mg/kg, ip measured at 1 hr post dose relative to control. The assay is classed as functional.
The subject of assay [8] is Rattus norvegicus. As to the kind of experiment: Anti-inflammatory activity in Wistar rat assessed as inhibition of carrageenan-induced paw edema at 40 mg/kg, ip measured at 3 hrs post dose relative to control. The format is functional.
Assay [9] concerns Rattus norvegicus. As to the kind of experiment: Anti-inflammatory activity in Wistar rat assessed as inhibition of carrageenan-induced paw edema at 40 mg/kg, ip measured at 1 hr post dose relative to control. The format is functional. Background: The carrageenan paw model is a standard test of acute inflammation.
In assay [10] the test system is Rattus norvegicus. As to the kind of experiment: Anti-inflammatory activity in Wistar rat assessed as inhibition of carrageenan-induced paw edema at 100 mg/kg, ip measured at 2 hrs post dose relative to control. The assay is classed as functional.
The test system of assay [11] is Mus musculus. As to the kind of experiment: Antiinflammatory activity in formalin-induced nociception Swiss CD-1 mouse model assessed as time spent on licking or biting formalin injected right hind paw during neurogenic phase at 2.5 mg/kg, ip measured during phase 1 (reference value: 97 +/- 6.86 sec). The format is functional.
The target of assay [12] is Transient receptor potential cation channel subfamily A member 1 (Homo sapiens) (UniProt O75762). As to the kind of experiment: Antagonist activity at human TRPA1 expressed in HEK293 cells assessed as decrease in flufenamic acid-evoked increase in intracellular calcium level at 10 uM measured for 180 secs with 1 sec interval by Fluo4-AM dye-based fluorescence assay relative to control. The assay is classed as cell-based.
Transient receptor potential cation channel subfamily A member 1 (Homo sapiens), sequence (O75762 whole entry): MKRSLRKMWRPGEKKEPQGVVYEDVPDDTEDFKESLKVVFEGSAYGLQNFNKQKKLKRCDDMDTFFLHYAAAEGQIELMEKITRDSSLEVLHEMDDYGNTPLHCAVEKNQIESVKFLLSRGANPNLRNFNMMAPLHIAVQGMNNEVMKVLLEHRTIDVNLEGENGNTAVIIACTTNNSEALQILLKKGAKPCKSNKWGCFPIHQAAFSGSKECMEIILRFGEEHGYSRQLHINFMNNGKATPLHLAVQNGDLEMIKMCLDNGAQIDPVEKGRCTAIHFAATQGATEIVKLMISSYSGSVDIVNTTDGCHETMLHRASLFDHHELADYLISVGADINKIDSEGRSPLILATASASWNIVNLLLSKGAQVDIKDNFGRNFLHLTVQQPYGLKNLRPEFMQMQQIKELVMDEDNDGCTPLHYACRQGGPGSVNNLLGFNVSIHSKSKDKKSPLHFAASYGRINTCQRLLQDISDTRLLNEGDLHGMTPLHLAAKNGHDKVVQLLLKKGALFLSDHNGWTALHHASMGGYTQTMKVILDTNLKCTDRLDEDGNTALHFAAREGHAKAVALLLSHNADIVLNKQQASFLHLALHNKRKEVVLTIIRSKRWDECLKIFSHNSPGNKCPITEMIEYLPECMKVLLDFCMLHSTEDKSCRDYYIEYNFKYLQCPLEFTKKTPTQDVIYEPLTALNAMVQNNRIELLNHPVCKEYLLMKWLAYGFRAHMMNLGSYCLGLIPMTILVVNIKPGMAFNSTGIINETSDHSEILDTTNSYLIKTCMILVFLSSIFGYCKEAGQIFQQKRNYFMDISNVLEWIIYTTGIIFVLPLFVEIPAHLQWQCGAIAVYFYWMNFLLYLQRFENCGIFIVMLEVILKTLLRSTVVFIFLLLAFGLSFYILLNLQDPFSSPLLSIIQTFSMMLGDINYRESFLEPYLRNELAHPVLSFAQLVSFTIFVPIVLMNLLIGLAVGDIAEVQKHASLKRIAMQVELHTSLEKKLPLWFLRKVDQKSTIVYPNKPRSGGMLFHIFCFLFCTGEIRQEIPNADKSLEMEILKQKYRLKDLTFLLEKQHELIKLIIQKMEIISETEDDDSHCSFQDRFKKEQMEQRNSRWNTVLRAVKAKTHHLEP

For assay [13], the system named is Rattus norvegicus. As to the kind of experiment: Anti-inflammatory activity in Wistar rat assessed as inhibition of carrageenan-induced paw edema at 100 mg/kg, ip measured at 3 hrs post dose relative to control. The format is functional.
Assay [14] has as its system Mus musculus. As to the kind of experiment: Antiinflammatory activity in formalin-induced nociception Swiss CD-1 mouse model assessed as time spent on licking or biting formalin injected right hind paw during neurogenic phase at 10 mg/kg, ip measured during phase 1 (reference value: 97 +/- 6.86 sec). The format is functional.
In assay [15] the test system is Rattus norvegicus. As to the kind of experiment: Anti-inflammatory activity in Wistar rat assessed as inhibition of carrageenan-induced paw edema at 20 mg/kg, ip measured at 3 hrs post dose relative to control. The assay is classed as functional.
Assay [16] deals with Transient receptor potential cation channel subfamily A member 1 (Homo sapiens) (UniProt O75762). As to the kind of experiment: Antagonist activity at human TRPA1 expressed in HEK293 cells assessed as decrease in flufenamic acid-evoked increase in intracellular calcium level at 1 uM measured for 180 secs with 1 sec interval by Fluo4-AM dye-based fluorescence assay relative to control. The format is cell-based.

Assay [17] relates to Rattus norvegicus. As to the kind of experiment: Anti-inflammatory activity in Wistar rat assessed as inhibition of carrageenan-induced paw edema at 100 mg/kg, ip measured at 1 hr post dose relative to control. The assay is classed as functional.
In assay [18] the test system is Mus musculus. As to the kind of experiment: Antiinflammatory activity in formalin-induced nociception ip dosed Swiss CD-1 mouse model assessed as time spent on licking or biting formalin injected right hind paw […] measured during phase 2. The assay is classed as functional. The following applies: Swiss CD-1, ip.
In assay [19] the test system is Rattus norvegicus. As to the kind of experiment: Anti-inflammatory activity in Wistar rat assessed as inhibition of carrageenan-induced paw edema at 40 mg/kg, ip measured at 2 hrs post dose relative to control. The format is functional.
Assay [20] deals with Mus musculus. As to the kind of experiment: Antiinflammatory activity in formalin-induced nociception Swiss CD-1 mouse model assessed as time spent on licking or biting formalin injected right hind paw during neurogenic phase at 5 mg/kg, ip measured during phase 2 (reference value: 158.3 +/- 12.34 sec). The assay is classed as functional.
Assay [21] has as its system Rattus norvegicus. As to the kind of experiment: Anti-inflammatory activity in Wistar rat assessed as inhibition of carrageenan-induced paw edema at 20 mg/kg, ip measured at 2 hrs post dose relative to control. The format is functional.
Assay [22] deals with Rattus norvegicus. As to the kind of experiment: Antiallodynic activity in Wistar rat assessed as reduction in oxaliplatin-induced neuropathic pain in late phase by measuring paw withdrawal force at 5 to 10 mg/kg, ip measured after 60 mins by Von Frey test. The format is functional, organism-based.
Assay [23] has as its system Rattus norvegicus. As to the kind of experiment: Antiallodynic activity in Wistar rat assessed as reduction in oxaliplatin-induced neuropathic pain in early phase by measuring paw withdrawal force at 5 to 10 mg/kg, ip measured after 60 mins by Von Frey test. The assay is classed as functional, organism-based.

The structures appear in SMILES notation. The source made the active and inactive calls. The calls are words filed in the database; no cut-off is given here. Some results are limits rather than exact numbers.

In general, inhibition refers to how much of the control response was suppressed. The IC50 is the concentration that inhibits the measured activity by half. As to `CCOc1nc2c(c(=O)n(C)c(=O)n2C)n1CCCC(=O)Nc1ccc(C(C)(C)C)cc1`, the inhibition in [1] came to 0%. For the same molecule, the figures for the IC50 in assay [2] and in assay [3] were 42.5 µM and 54.3 µM, respectively.

As to `CCOc1nc2c(c(=O)n(C)c(=O)n2C)n1CC(=O)NCc1ccccc1Cl`, in assay [1], the inhibition was determined as 7%. In addition, the IC50 in [2] and in assay [3] was greater than 200 µM in each case.

For the molecule `CCCOc1nc2c(c(=O)n(C)c(=O)n2C)n1CCCC(=O)Nc1ccc(C(C)C)cc1`, the inhibition in assay [1] was determined as 11%. Moreover, the IC50 in assay [2] came out at 17.8 µM; in [3], 37.6 µM.

As to `COc1nc2c(c(=O)n(C)c(=O)n2C)n1CCCC(=O)NCc1ccccc1Cl`, the inhibition in assay [1] was found to be 16%. Besides, the IC50 in assay [2] and in [3] was greater than 200 µM throughout.

With `CCOc1nc2c(c(=O)n(C)c(=O)n2C)n1CCCC(=O)Nc1ccc(C(C)C)cc1`, the inhibition in assay [1] was 10%. The IC50 in assay [2] worked out at 32.3 µM; in assay [3], 96.3 µM.

For the molecule `COc1nc2c(c(=O)n(C)c(=O)n2C)n1CCCC(=O)Nc1ccc(C(C)C)cc1`, the inhibition in assay [1] was determined as 18%. The IC50 in assay [2] and in assay [3] was greater than 200 µM in each case.

Take `COc1nc2c(c(=O)n(C)c(=O)n2C)n1CCCC(=O)Nc1ccc(C(C)(C)C)cc1`: the inhibition in [1] was 13%. Moreover, the values for the IC50 in assay [2] and in assay [3] were 87.5 µM and 19.8 µM, respectively.

By inhibition in vivo is commonly meant the drop in the measured response relative to a control, in per cent. As a reminder, the ED50 is the dose that gives a 50% effect, or the effect in half of the subjects. `CC(C)c1ccc(NC(=O)Cn2cnc3c2c(=O)n(C)c(=O)n3C)cc1`: the figures for the inhibition in assay [1], in assay [12] and in assay [16] were 43%, 13% and 0%, respectively. In addition, the Time turned out to be 73.83 s in the assay on Mus musculus [4]; 111.33 s in the assay with Mus musculus [5]; 13.9 s in the assay on Mus musculus [6]; 82.83 s in the assay with Mus musculus [11]; 71 s with Mus musculus [14]; 76.45 s in the assay with Mus musculus [20]. Further, the inhibition in vivo at 20 mg/kg was found to be 4.7% in the assay with Rattus norvegicus [7], 10% in the assay on Rattus norvegicus [15] and 0.02% with Rattus norvegicus [21]. Also, the inhibition in vivo at 40 mg/kg in the assay with Rattus norvegicus [8] was found to be 25.6%; in the assay with Rattus norvegicus [9], 12.1%; with Rattus norvegicus [19] it was 23.5%. The results for the inhibition in vivo at 100 mg/kg in the assay with Rattus norvegicus [10], with Rattus norvegicus [13] and in the assay on Rattus norvegicus [17] were 48.2%, 48.3% and 24.1%, respectively. Further, the IC50 in [2] and in assay [3] was greater than 200 µM in each case. Also, the ED50 with Mus musculus [18] was 33.8 mg/kg.

For `CC(C)C[C@H](CN)CC(=O)O`, the outcome in the assay on Rattus norvegicus [22] and in the assay with Rattus norvegicus [23] was Active.

For `COc1nc2c(c(=O)n(C)c(=O)n2C)n1CC(=O)Nc1ccc(C(C)C)cc1`, the inhibition was found to be 39% in assay [1], 13% in assay [12] and 4% in [16]. Further, the IC50 in assay [2] and in assay [3] was greater than 200 µM each time.

Regarding `CCCCOc1nc2c(c(=O)n(C)c(=O)n2C)n1CCCC(=O)Nc1ccc(C(C)CC)cc1` (centres undefined), the inhibition in assay [1] amounted to 14%. Moreover, the IC50 in assay [2] is 110 µM; in assay [3], 20 µM.

Consider `CCCOc1nc2c(c(=O)n(C)c(=O)n2C)n1CCCC(=O)Nc1ccc(C(C)(C)C)cc1`, for which the inhibition in assay [1] was 52%; in assay [12], 5%; in [16], 5%. Besides, the IC50 is 21.1 µM in [2] and 7.76 µM in assay [3].

In the case of `COc1nc2c(c(=O)n(C)c(=O)n2C)n1CCCC(=O)Nc1cccc(Cl)c1`, in [1], the inhibition came out at 9%. Besides, the IC50 in assay [2] and in assay [3] was greater than 200 µM in each case.

With `CCOc1nc2c(c(=O)n(C)c(=O)n2C)n1CC(=O)Nc1ccc(Cl)cc1`, the inhibition in assay [1] was 7%. Also, the IC50 in [2] and in [3] was greater than 200 µM each time.

In the case of `COc1nc2c(c(=O)n(C)c(=O)n2C)n1CC(=O)Nc1cccc(Cl)c1`, the inhibition in assay [1] amounted to 2%. The IC50 in assay [2] and in [3] was greater than 200 µM throughout.

On to `COc1nc2c(c(=O)n(C)c(=O)n2C)n1CCCC(=O)Nc1ccc(Cl)cc1`, for which the inhibition in assay [1] was 15%. Further, the IC50 in [2] and in [3] was greater than 200 µM in each case.

Turning to `CCOc1nc2c(c(=O)n(C)c(=O)n2C)n1CC(=O)Nc1ccc(C(C)C)cc1`, in assay [1], the inhibition was 20%. The IC50 in assay [2] and in assay [3] was greater than 200 µM each time.

Regarding `CCCOc1nc2c(c(=O)n(C)c(=O)n2C)n1CCCC(=O)Nc1cc(C(C)(C)C)ccc1O`, the inhibition in assay [1] turned out to be 38%; in assay [12], 1%; in assay [16], 3%. For the same molecule, the IC50 in assay [2] stood at 14.7 µM; in assay [3] it was 41.1 µM.

For the molecule `CCOc1nc2c(c(=O)n(C)c(=O)n2C)n1CC(=O)Nc1cccc(Cl)c1`, in assay [1], the inhibition is 5%. In addition, the IC50 in [2] and in assay [3] was greater than 200 µM each time.

As for `CCCOc1nc2c(c(=O)n(C)c(=O)n2C)n1CCCC(=O)Nc1ccc(C(C)CC)cc1` (centres undefined), the inhibition in assay [1] was 5%. Also, the IC50 in assay [2] is 16.8 µM; in [3], 9.06 µM.

In the case of `CC(C(=O)O)c1cccc(C(=O)c2ccccc2)c1` (centres undefined) [KETOPROFEN], the values for the inhibition in vivo at 20 mg/kg in the assay with Rattus norvegicus [7], with Rattus norvegicus [15] and with Rattus norvegicus [21] were 23.3%, 66% and 54.2%, respectively.

Regarding `COc1nc2c(c(=O)n(C)c(=O)n2C)n1CC(=O)NCc1ccccc1Cl`, the inhibition in assay [1] is 3%. The IC50 in assay [2] and in assay [3] was greater than 200 µM each time.
